Assay results published in US20150352076A1, “MOLECULARLY TARGETED COMBINATION DRUG FOR TUMOR TREATMENT AND PREVENTION” (ONCOLYS BIOPHARMA INC., priority 2013, published 2015).
Residues, ends and D or L forms follow the SMILES beside them. *: point of attachment. Cbz = O=C(OCc1ccccc1)*; CH2F = FC*

How the values were obtained:
Assay type in all cases: cell-based, human
HEC-1-A cells [1] = assay: Analysis of cell cycle and apoptosis (sub-G1 fraction, flow cytometry) with combination index; conditions: for effect on tumor cell cycle progression: used alone, OBP-801 4 nM, LY294002 12.5 μM, 24 hours to 72 hours
Procedure: (§1) Cells were treated for 24 hours, 48 hours, or 72 hours at respective concentrations with or without addition of OBP-801 and/or with addition of LY294002, BKM120, GDC-0941, BEZ235, BYL719, or CH5132799, following which cells were harvested. The cells were permeabilized with 0.1% Triton-X100, following which the nuclei were stained with propidium iodide (PI). DNA content was measured using a FACSCalibur™ flow cytometer (Becton-Dickinson, Franklin Lakes, N.J., USA), and was analyzed with ModFit LT™ (Verity Software House, Topsham, Me., USA) and the Cell Quest™ software package (Becton-Dickinson).
Combination index (CI) was calculated using CalcuSyn software (Biosoft, UK) based on the method of Chou and Talalay. When CI<1, it is determined that the effect is synergistic; i.e., greater than the expected additive effect. When CI=1, it is determined that the effect is additive; when CI>1, it is determined that the effect is antagonistic.

786-O cells [2] = assay: Measurement of intracellular reactive oxygen species (CM-H2DCFDA); conditions: OBP-801 and LY294002 plus NAC
Procedure: (§2) Cells were pretreated for 48 h with or without addition of OBP-801 and/or with addition of LY294002, and were thereafter treated with 10 μM 5-(and-6)-chloromethyl-2′,7′-dichlorodihydrofluorescein diacetate, acetyl ester (CM-H2DCFDA) (Invitrogen, Carlsbad, Calif., USA). After 30 minutes of incubation with 10 μM CM-H2DCFDA, cells were collected by trypsinization, were washed with PBS, and were analyzed by flow cytometry using FACSCalibur™ and CellQuest™ software (Becton-Dickinson).

HEC-1-A cells [3] = assay: as above; conditions: OBP-801 and LY294002 plus NAC
Procedure: as §2

786-O cells [4] = assay: Analysis of apoptosis (sub-G1 fraction, flow cytometry); conditions: for induction of apoptosis (sub-G1), treatment alone: 48 hours and 72 hours; for effect of combined use with OBP-801 (summary statement): PI3K inhibitor used in combination with OBP-801, all five tested in 786-O cells
Procedure: as §1

caspases, Bim = assay: Western blot analysis of caspase cleavage and Bim in HEC-1-A cells; conditions: OBP-801 and LY294002 plus NAC
Procedure: (§3) Cells were lysed with lysis solution (50 mM Tris-HCl, 1% SDS, 2 μg/mL leupeptin, 2 μg/mL aprotinin, 0.1% 2-mercaptoethanol, and 1 mM phenylmethyl sulfonyl fluoride). Protein extract was loaded onto a polyacrylamide gel, subjected to electrophoresis, and transferred to a nitrocellulose membrane. Blots were blocked in blocking solution (5% skim milk/TBST) for 1 hour at room temperature, and incubated with appropriate primary antibody for 1 hour at room temperature. Signal was detected with an ECL™ Western Blot Analysis System (GE Healthcare, Piscataway, N.J., USA) or a Chemi-Lumi One chemiluminescent detection kit (Nacalai Tesque, Inc., Japan). […]

survivin and XIAP = assay: Western blot analysis of survivin and XIAP in 786-O cells; conditions: OBP-801 and LY294002 plus NAC
Procedure: as §3

786-O cells [5] = assay: Cell viability testing, cell growth inhibition; conditions: used alone
Procedure: (§4) HEC-1-A cells derived from the human type 2 endometrial carcinoma cell line were cultured under conditions of 37° C. and 5% CO2 in RPMI medium to which 10% FBS had been added. Ishikawa human endometrial carcinoma cells were cultured under conditions of 37° C. and 5% CO2 in DMEM medium to which 10% FBS had been added. Human renal cell carcinoma cell line 786-O cells were cultured under conditions of 37° C. and 5% CO2 in RPMI 1640 medium to which 10% FBS, 2 mM glutamine, 100 U/mL penicillin, and 100 μg/mL streptomycin had been added. Human renal cell carcinoma cell line ACHN cells were cultured under conditions of 37° C. and 5% CO2 in DMEM medium to which 10% FBS, 4 mM glutamine, 100 U/mL penicillin, and 100 μg/mL streptomycin had been added. Human lymphoma cell line SU-DHL-6 cells were cultured under conditions of 37° C. and 5% CO2 in RPMI 1640 medium to which 10% FBS, 2 mM glutamine, 100 U/mL penicillin, and 100 μg/mL streptomycin had been added. Human breast cancer cell line MDA-MB-231 cells were cultured under conditions of 37° C. and 5% CO2 in RPMI 1640 medium to which 10% FBS, 2 mM glutamine, 100 U/mL penicillin, and 100 μg/mL streptomycin had been added.
(§5) Cell viability was determined by carrying out measurements at a wavelength of 450 nm with a Viento multi-well spectrophotometer (DS Pharma Biomedical, Japan) using a Cell Counting Kit-8 (Dojindo Laboratories, Japan).

ACHN cells = assay: Cell viability testing, cell growth inhibition; conditions: used alone
Procedure: as §4, §5

Ishikawa cells = assay: Cell viability testing, cell growth inhibition; conditions: used alone
Procedure: as §4, §5

acetylated histone H4 = assay: Western blot analysis of acetylated histone H4 in HEC-1-A cells
Procedure: as §3

HEC-1-A cells [6] = assay: Colony formation assay
Procedure: Cells were seeded at a density of 200 cells per well in 6-well plates. After culturing these for 24 hours, treatment was carried out for 48 hours at respective concentrations with or without addition of OBP-801 and/or with addition of LY294002. These were then cultured in growth medium for 10 days, and the number of viable colonies was counted.

HEC-1-A cells [7] = assay: Cell viability testing (Cell Counting Kit-8), cell growth inhibition
Procedure: as §4, §5

[8] = tested on: caspase-3, caspase-8 and caspase-9; assay: Western blot analysis of caspase-3, caspase-8 and caspase-9 cleavage in 786-O cells
Procedure: as §3

phosphorylated Akt = assay: Western blot analysis of phosphorylated Akt in HEC-1-A cells
Procedure: as §3

Question: Which “effect on induction of apoptosis resulting from combined treatment” value (HEC-1-A cells [1]; HEC-1-A cells, OBP-801 and LY294002 plus NAC) does the source give for `CC(=O)N[C@@H](CS)C(=O)O` [NAC, N-acetyl-L-cysteine] here?
Answer: almost completely suppressed

Question: And the “effect on induction of intracellular reactive oxygen species due to combined treatment” value (786-O cells [2])?
Answer: blocked the induction of intracellular reactive oxygen species

Question: And the “effect on increase of intracellular reactive oxygen species caused by combined treatment” value (HEC-1-A cells [3])?
Answer: blocked

Question: What about the “effect on induction of apoptosis due to combined treatment” value (786-O cells [4]; 786-O cells, OBP-801 and LY294002 plus NAC) of the same compound?
Answer: blocked the induction of apoptosis

Question: What about the “effect on caspase activation and Bim induction due to combined treatment” value (caspases, Bim) of the same compound?
Answer: inhibited the caspase activation and Bim induction

Question: And the “effect on downregulation of survivin and XIAP by combined treatment” value (survivin and XIAP)?
Answer: restored

Question: Which results are given for spiruchostatin A [OBP-801]?
Answer: effect on tumor cell cycle progression (HEC-1-A cells [1]): G2/M-phase arrest; growth of 786-O cells (786-O cells [5]): suppressed growth of 786-O cells or ACHN cells in concentration-dependent fashion; growth of ACHN cells (ACHN cells): suppressed growth of 786-O cells or ACHN cells in concentration-dependent fashion; growth of Ishikawa cells (Ishikawa cells): suppressed growth of Ishikawa cells in concentration-dependent fashion; concentrations causing increase of acetylated histone H4 (acetylated histone H4): ≥ 1.6 nM; number of colonies formed (HEC-1-A cells [6]; OBP-801 alone at 4 nM, 48 hours treatment, 10 days culture): 60%; concentrations causing inhibition of cell growth (HEC-1-A cells [7]; OBP-801 alone): ≥ 0.0031 µM; induction of apoptosis (sub-G1), treatment alone (786-O cells [4]; 786-O cells): only slight induction of apoptosis; cleavage of caspase-3, caspase-8 and caspase-9 [8]: did not induce cleavage of the foregoing caspases

Question: With `O=c1cc(N2CCOCC2)oc2c(-c3ccccc3)cccc12` [LY294002, 2-(4-morpholinyl)-8-phenyl-4H-1-benzopyran-4-one] as the compound, how does the “effect on tumor cell cycle progression” value (HEC-1-A cells [1]) read?
Answer: G1-phase arrest

Question: And the “concentrations causing decrease in phosphorylated Akt” value (phosphorylated Akt)?
Answer: ≥ 6.3 µM

Question: What about the “growth of 786-O cells” value (786-O cells [5]) of the same compound?
Answer: suppressed growth of 786-O cells or ACHN cells in concentration-dependent fashion

Question: And the “growth of ACHN cells” value (ACHN cells)?
Answer: suppressed growth of 786-O cells or ACHN cells in concentration-dependent fashion

Question: And the “growth of Ishikawa cells” value (Ishikawa cells)?
Answer: suppressed growth of Ishikawa cells in concentration-dependent fashion

Question: What about the “number of colonies formed” value (HEC-1-A cells [6]; LY294002 alone, even at a concentration as high as 12.5 μM) of the same compound?
Answer: no reduction in the number of colonies formed was observed

Question: What about the “concentrations causing inhibition of cell growth” value (HEC-1-A cells [7]; LY294002 alone) of the same compound?
Answer: ≥ 6.3 µM

Question: What about the “induction of apoptosis (sub-G1), treatment alone” value (786-O cells [4]; 786-O cells) of the same compound?
Answer: only slight induction of apoptosis

Question: And the “cleavage of caspase-3, caspase-8 and caspase-9” value [8]?
Answer: did not induce cleavage of the foregoing caspases

Question: Which “effect on apoptosis induced by combined use of OBP-801 and PI3K inhibitor” value (HEC-1-A cells [1]; HEC-1-A cells, pan-caspase inhibitor added) does the source give for `COC(=O)C[C@H](NC(=O)[C@H](C)NC(=O)[C@@H](NC(=O)OCc1ccccc1)C(C)C)C(=O)CF` [zVAD-fmk] (Cbz-Val-Ala-Asp(OMe)-CH2F) here?
Answer: almost completely suppressed

Question: And the “effect on apoptosis induced by combined treatment with OBP-801 and LY294002” value (786-O cells [4]; 786-O cells, pan-caspase inhibitor added)?
Answer: effectively suppressed the apoptosis

Question: How did the “effect of combined use with OBP-801 (summary statement)” value (“effect of combined use” for short) (786-O cells [4]) turn out when `Cn1c(=O)n(-c2ccc(C(C)(C)C#N)cc2)c2c3cc(-c4cnc5ccccc5c4)ccc3ncc21` [BEZ235] was run?
Answer: synergistic tumor therapeutic/prophylactic effect

Question: For `Nc1cc(C(F)(F)F)c(-c2cc(N3CCOCC3)nc(N3CCOCC3)n2)cn1` [BKM120], which “effect of combined use” value (786-O cells [4]) is on record?
Answer: synergistic tumor therapeutic/prophylactic effect

Question: `CS(=O)(=O)N1CCc2c(-c3cnc(N)nc3)nc(N3CCOCC3)nc21` [CH5132799] was tested. Which “effect of combined use” value (786-O cells [4]) did it give?
Answer: synergistic tumor therapeutic/prophylactic effect

Question: Which “effect of combined use” value (786-O cells [4]) does the source give for `CS(=O)(=O)N1CCN(Cc2cc3nc(-c4cccc5[nH]ncc45)nc(N4CCOCC4)c3s2)CC1` [GDC-0941] here?
Answer: synergistic tumor therapeutic/prophylactic effect

Question: `Cc1nc(NC(=O)N2CCC[C@H]2C(N)=O)sc1-c1ccnc(C(C)(C)C(F)(F)F)c1` [BYL719] was tested. Which “effect of combined use” value (786-O cells [4]) did it give?
Answer: synergistic tumor therapeutic/prophylactic effect
